Results reported in patent US20090227619A1, “Harmine derivatives, intermediates used in their preparations, preparation processes and use therefo” (priority 2003, published 2009).
Several values for one entry are separate records, joined by “and”; a condition that tells them apart may be missing. Equal entries are not always repeated. Where two headings read alike, the source gives them in different places.

Tests used:
BGC-823 = assay: In vitro cytotoxicity, IC50 by MTT method, BGC-823; type: cell-based
Method: (§1) Culture medium powder RPMI1640 was dissolved in a proper amount of tri-distilled water according to the instruction of the product. […] It was the basic culture solution. The complete culture solution was added with FBS having a final concentration of 10%, 100 U/ml penicillin and 100 µg/ml streptomycin. The solution was fully stirred by a magnetic blender, and the pH of the solution was adjusted to 6.8-7.0. The volume was kept constant. After being filtered and disinfected, the solution was kept into several containers which were sealed and stored at 4° C.
(§2) The cells were placed in a culture dish followed by the addition of complete culture liquid RPMI1640 and then cultured in a incubator comprising 5% CO2 at 37° C. In the exponential growth phase, the cells grew vigorously. If the culture liquid became yellow, the liquid should be replaced instantly.
(§3) The cells, at a concentration of 10^5/ml, were inoculated at a 96-pore culture plate. In each pore, 100 μl cells were inoculated. The cells were placed in a CO2 incubator until the cells were in the logarithmic growth phase. The samples to be tested were added according to the preset concentration gradient. For each gradient, the test was conducted at least three times. An equivalent amount of solvent for dissolving the samples was added in the control group. After 48 h of culture, each pore was added 20 μl MTT (5 mg/ml). The cells were cultured at 37° C. for 4 h. After the supernatant was carefully removed, 100 μl DMSO was added in each pore. The plate was agitated for about 10 minutes such that the precipitates were dissolved. After that, OD value was identified with a Microplate Reader at the wavelength of 490 nm. The survival rate of the cells at various concentrations was calculated according to the following formula:
(§4) Survival rate %=average OD value of the sample group/average OD value of the control group×100%
(§5) Plots of log survival rate of the cells vs. concentration of the medicament were constructed, and the IC50 value of each sample was calculated according to graphing methods.

Bel-7402 = assay: In vitro cytotoxicity, IC50 by MTT method, Bel-7402; type: cell-based
Method: as §1, §2, §3, §4, §5

HepG2 = assay: In vitro cytotoxicity, IC50 by MTT method, HepG2; type: cell-based, human
Method: as §1, §2, §3, §4, §5

NIH3T3 = assay: In vitro cytotoxicity, IC50 by MTT method, NIH3T3; type: cell-based
Method: as §1, §2, §3, §4, §5

PLA-801 = assay: In vitro cytotoxicity, IC50 by MTT method, PLA-801; type: cell-based
Method: as §1, §2, §3, §4, §5

Lovo = assay: In vitro cytotoxicity, IC50 by MTT method, Lovo; type: cell-based
Method: as §1, §2, §3, §4, §5

Hela = assay: In vitro cytotoxicity, IC50 by MTT method, Hela; type: cell-based
Method: as §1, §2, §3, §4, §5

S180 sarcoma = details: S180 sarcoma, Dosage 30 (mg/ml), ip × 7qd, listed as CTX
Lewis lung cancer = details: Lewis lung cancer, listed as CTX;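 further: mice implanted subcutaneously in the axilla with Lewis lung tumor cells, treated starting the following day, killed roughly three weeks after implantation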
[1] = BGC823 cell strain, read-out: IC50 BGC823
[2] = Bel7402 cell strain, read-out: IC50 Bel7402
[3] = HepG2 cell strain, read-out: IC50 HepG2
[4] = NIH3T3 cell strain, read-out: IC50 NIH3T3
[5] = PLA-801 cell strain, read-out: IC50 PLA-801
[6] = Lovo cell strain, read-out: IC50 Lovo
[7] = Hela cell strain, read-out: IC50 Hela

Row | SMILES | IC50 (BGC-823; [1]) [µM] | IC50 (Bel-7402; [2]) [µM] | IC50 (HepG2; [3]) [µM] | IC50 (NIH3T3; [4]) [µM] | IC50 (PLA-801; [5]) [µM] | IC50 (Lovo; [6]) [µM] | IC50 (Hela; [7]) [µM] | further results
1 | Nc1cc2c(cn1)[nH]c1ccccc12 [Compound 21, 3-amino-β-carboline] | – | – | – | – | – | – | – | IC50 (BGC-823; Homo sapiens, BGC-823, BGC823, MTT, read-out: IC50): 860 µM; IC50 (Bel-7402; Homo sapiens, Bel-7402, BeI7402, MTT, read-out: IC50): 1570 µM; IC50 (HepG2; Homo sapiens, HepG2, MTT, read-out: IC50): 340 µM; IC50 (NIH3T3; Mus musculus, NIH3T3, MTT, read-out: IC50): 290 µM; IC50 (PLA-801; PLA-801, MTT, read-out: IC50): 570 µM; IC50 (Lovo; Homo sapiens, Lovo, MTT, read-out: IC50): 240 µM; IC50 (Hela; Homo sapiens, Hela, MTT, read-out: IC50): 310 µM
2 | CCOC(=O)c1cc2c3ccccc3n(Cc3c(F)c(F)c(F)c(F)c3F)c2cn1 [Compound 46, ethyl 9-(2′,3′,4′,5′,6′-pentafluoro)benzyl-β-carboline-3-carboxylate] | 50 | 10 | 120 | 60 | 50 | 40 | 980 | –
3 | CCOC(=O)c1cc2c3ccccc3n(CC(=O)c3ccccc3)c2cn1 [Compound 47, ethyl 9-acetophenone-β-carboline-3-carboxylate] | > 3000 | 1020 | > 3000 | > 3000 | > 3000 | > 3000 | > 3000 | –
4 | CCn1c2ccccc2c2cc(C(=O)NN)ncc21 [Compound 51, 3-carbohydrazine 9-ethyl-β-carboline] | 110 | 370 | 260 | 510 | 510 | 190 | 240 | –
5 | NNC(=O)c1cc2c3ccccc3n(Cc3ccccc3)c2cn1 [Compound 52, 3-carbohydrazide-9-benzyl-β-carboline] | 270 | 60 | 140 | 220 | 520 | 250 | 250 | –
6 | CCOC(=O)c1cc2c3ccccc3n(CC(=O)c3ccccc3)c2c(C)n1 [Compound 61, ethyl 9-acetophenone-1-methyl-β-carboline-3-carboxylate] | 90 | 460 | 70 | 90 | 160 | 50 | 60 | –
7 | CCCc1nc(C(=O)O)cc2c3ccccc3n(CCCc3ccccc3)c12 [Compound 75, 9-phenylpropyl-1-propyl-β-carboline-3-carboxylic acid] | – | – | – | – | 230 | – | – | IC50 (BGC-823; Homo sapiens, BGC-823, BGC823 cell strain, read-out: IC50 BGC823): 240 µM; IC50 (Bel-7402; Homo sapiens, Bel-7402, Bel7402 cell strain, read-out: IC50 Bel7402): 200 µM; IC50 (HepG2; Homo sapiens, HepG2 cell strain, read-out: IC50 HepG2): 130 µM; IC50 (NIH3T3; Mus musculus, NIH3T3 cell strain, read-out: IC50 NIH3T3): 110 µM; IC50 (Lovo; Homo sapiens, Lovo cell strain, read-out: IC50 Lovo): 80 µM; IC50 (Hela; Homo sapiens, Hela cell strain, read-out: IC50 Hela): 140 µM
8 | CCOC(=O)c1cc2c3ccccc3n(Cc3ccccc3)c2c[n+]1Cc1ccccc1.[O-][I+2]([O-])[O-] [Compound 85, 2,9-dibenzyl-3-ethoxycarbonyl-β-carbolinium iodate] | 40 | 40 | 20 | 20 | 30 | 30 | 30 | –
9 | O=P1(N(CCCl)CCCl)NCCCO1 (centres unmarked) [cyclophosphamide, reference compound] | – | – | – | – | – | – | – | Body weight of the animals, beginning, First time (S180 sarcoma; first time): 19.4 g and 18.7 g; Body weight of the animals, end, First time (S180 sarcoma; first time): 20.9 g and 22.3 g; Weight of the tumor X ± SD, First time (S180 sarcoma; first time): 0.33 ± 0.14 g and 0.33 ± 0.12 g; Body weight of the animals, beginning, Second time (S180 sarcoma; second time): 19.8 g and 20.3 g; Body weight of the animals, end, Second time (S180 sarcoma; second time): 23.2 g and 20.9 g; Body weight of the animals, end, First time (Lewis lung cancer; Dosage 30 (mg/ml), Iv × 7qd, first time): 21.3 g and 20.2 g; Body weight of the animals, end, Second time (Lewis lung cancer; Dosage 30 (mg/ml), Iv × 7qd, second time): 21.3 g and 21.0 g; Body weight of the animals, beginning, First time (Lewis lung cancer; Dosage 30, Iv × 7qd, first time): 20.1 g and 18.8 g; Body weight of the animals, beginning, Second time (Lewis lung cancer; Dosage 30, Iv × 7qd, second time): 18.9 g and 19.8 g
